Patent US8173638B2 (Boehringer Ingelheim International GmbH, priority 2006, dated 2012)
Read-outs that look alike come from different tables or passages of the source.

Target: T1, human CB2R (Homo sapiens, UniProt P34972)
T1 construct: host or cells: CHO cells
Test: CB2R mediated modulation of cAMP synthesis
Type: cell-based
Conditions: for Emax: 0.5 h, read-out: Agonist Efficacy (%); for agonistic activity: found through the use of the described assays (CB2 agonists), qualitative statement
Summary of the method: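 Forskolin (10 uM)-driven cAMP in human CB2R-expressing CHO cells, read with DiscoverX-XS kit after 30 min compound exposure at 37 °C, 1 mM IBMX, 0.25% BSA. 100% defined as forskolin cAMP relative to 1 uM CP55940 inhibition. Agonist EC50 via four-parameter logistic model.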

[1] = CHO cells expressing human CB2R, cAMP inhibited by 1 uM CP55940 defined as 100%

T1 sequence (P34972 whole entry): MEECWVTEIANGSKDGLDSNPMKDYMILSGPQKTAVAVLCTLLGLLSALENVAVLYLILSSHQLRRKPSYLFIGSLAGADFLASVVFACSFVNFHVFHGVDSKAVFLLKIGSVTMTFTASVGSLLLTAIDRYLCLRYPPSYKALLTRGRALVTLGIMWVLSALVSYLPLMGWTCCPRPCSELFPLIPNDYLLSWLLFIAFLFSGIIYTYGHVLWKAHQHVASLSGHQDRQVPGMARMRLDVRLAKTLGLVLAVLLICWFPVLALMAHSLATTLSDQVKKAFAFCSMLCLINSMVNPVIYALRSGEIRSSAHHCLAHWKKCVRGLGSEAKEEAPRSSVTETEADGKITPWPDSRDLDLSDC

Row | Structure (SMILES) | agonistic activity | other results
1 | CCC(C)c1ccc(NC(=O)N2CCCN(C(=O)N3CCOCC3)CC2)cc1 (stereo not drawn) [Compound 218, 4-(Morpholine-4-carbonyl)-[1,4]diazepane-1-carboxylic acid (4-sec-butyl-phenyl)-amide] | – | Emax [1]: 82%; EC50 (read-out: hCB2 cAMP EC50): 20 nM
2 | CC(C)(C)c1cc(NC(=O)N2CCCN(C(=O)CN3CCSCC3)CC2)no1 [4-(2-Thiomorpholin-4-yl-acetyl)-[1,4]diazepane-1-carboxylic acid (5-tert-butyl-isoxazol-3-yl)-amide] | agonistic activity | –
3 | O=C(Nc1nc(-c2ccccc2)cs1)N1CCCN(C(=O)N2CCOCC2)CC1 [4-(Morpholine-4-carbonyl)-[1,4]diazepane-1-carboxylic acid (4-phenyl-thiazol-2-yl)-amide] | agonistic activity | –
4 | CC(C)(C)c1cc(NC(=O)N2CCCN(C(=O)C3CCCCCC3)CC2)no1 [4-Cycloheptanecarbonyl-[1,4]diazepane-1-carboxylic acid (5-tert-butyl-isoxazol-3-yl)-amide] | agonistic activity | –
5 | CC(C)(C)c1cc(NC(=O)N2CCCN(C(=O)C3CCC(=O)CC3)CC2)no1 [Compound 234, 4-(4-Oxo-cyclohexanecarbonyl)-[1,4]diazepane-1-carboxylic acid (5-tert-butyl-isoxazol-3-yl)-amide] | – | EC50: 33 nM; Emax (CHO): 100%
6 | CN(C)c1ccc(C(=O)N2CCCN(C(=O)Nc3ccc4ccccc4c3)CC2)cc1 [4-(4-Dimethylamino-benzoyl)-[1,4]diazepane-1-carboxylic acid naphthalen-2-ylamide] | agonistic activity | –
7 | CC(C)(C)c1ccc(NC(=O)N2CCCN(C(=O)CC3CCCC3)CC2)cc1 [4-(2-Cyclopentyl-acetyl)-[1,4]diazepane-1-carboxylic acid (4-tert-butyl-phenyl)-amide] | agonistic activity | –
8 | O=C(CC1CCCC1)N1CCCN(C(=O)Nc2ccc(-c3ccccc3)cc2)CC1 [4-(2-Cyclopentyl-acetyl)-[1,4]diazepane-1-carboxylic acid (4-biphenyl)-amide] | agonistic activity | –
9 | CC(C)CCC(=O)N1CCCN(C(=O)Nc2ccc3ccccc3c2)CC1 [Compound 94, 4-(4-Methyl-pentanoyl)-[1,4]diazepane-1-carboxylic acid naphthalen-2-ylamide] | – | Emax [1]: 98%; EC50 (read-out: hCB2 cAMP EC50): 89 nM
10 | CC1(O)CCC(C(=O)N2CCCN(C(=O)Nc3cc(C(C)(C)C)on3)CC2)CC1 (stereo not drawn) [4-(4-Hydroxy-4-methyl-cyclohexanecarbonyl)-[1,4]diazepane-1-carboxylic acid (5-tert-butyl-isoxazol-3-yl)-amide] | agonistic activity | –
11 | CC(C)(C)c1ccc(NC(=O)N2CCCN(C(=O)CC3CCCCC3)CC2)cc1 [Compound 107, 4-(2-Cyclohexyl-acetyl)-[1,4]diazepane-1-carboxylic acid (4-tert-butyl-phenyl)-amide] | – | Emax [1]: 94%; EC50 (read-out: hCB2 cAMP EC50): 100 nM
12 | CCCCc1ccc(NC(=O)N2CCCN(C(=O)c3ccccc3)CC2)cc1 [4-Benzoyl-[1,4]diazepane-1-carboxylic acid (4-butyl-phenyl)-amide] | agonistic activity | –
13 | CC(C)(C)c1cc(NC(=O)N2CCCN(C(=O)CN3CCC(F)(F)CC3)CC2)no1 [4-[2-(4,4-Difluoro-piperidin-1-yl)-acetyl]-[1,4]diazepane-1-carboxylic acid (5-tert-butyl-isoxazol-3-yl)-amide] | agonistic activity | –
14 | CC(C)(C)c1cc(NC(=O)N2CCCN(C(=O)NC3CCCCC3)CC2)no1 [Compound 212, [1,4]Diazepane-1,4-dicarboxylic acid 1-[(5-tert-butyl-isoxazol-3-yl)-amide] 4-cyclohexylamide] | – | EC50: 70 nM; Emax (CHO): 102%
15 | CC(C)(C)c1cc(NC(=O)N2CCCN(C(=O)N3CC[S+]([O-])CC3)CC2)no1 [4-(1-Oxo-1λ^4-thiomorpholine-4-carbonyl)-[1,4]diazepane-1-carboxylic acid (5-tert-butyl-isoxazol-3-yl)-amide] | agonistic activity | –
16 | C[C@@H]1CN(CC(=O)N2CCCN(C(=O)Nc3cc(C(C)(C)C)on3)CC2)C[C@H](C)O1 [4-[2-((2R,6S)-2,6-Dimethyl-morpholin-4-yl)-acetyl]-[1,4]diazepane-1-carboxylic acid (5-tert-butyl-isoxazol-3-yl)-amide] | agonistic activity | –
17 | O=C(Nc1ccc(C(F)(F)F)cc1)N1CCCN(C(=O)c2ccc(Cl)cc2)CC1 [4-(4-Chloro-benzoyl)-[1,4]diazepane-1-carboxylic acid (4-trifluoromethyl-phenyl)-amide] | agonistic activity | –
18 | CCC(C)c1ccc(NC(=O)N2CCCN(C(=O)C3CCOCC3)CC2)cc1 (stereo not drawn) [Compound 133, 4-(Tetrahydro-pyran-4-carbonyl)-[1,4]diazepane-1-carboxylic acid (4-sec-butyl-phenyl)-amide] | – | Emax [1]: 97%; EC50 (read-out: hCB2 cAMP EC50): 7.8 nM
19 | O=C(Nc1nc(-c2ccccc2)cs1)N1CCCN(C(=O)c2ccc(Cl)cc2)CC1 [Compound 167, 4-(4-Chloro-benzoyl)-[1,4]diazepane-1-carboxylic acid (4-phenyl-thiazol-2-yl)-amide] | – | Emax [1]: 102%; EC50 (read-out: hCB2 cAMP EC50): 26 nM
20 | CC(=O)NC1CCC(C(=O)N2CCCN(C(=O)Nc3cc(C(C)(C)C)on3)CC2)CC1 (stereo not drawn) [Compound 160, 4-(4-Acetylamino-cyclohexanecarbonyl)-[1,4]diazepane-1-carboxylic acid (5-tert-butyl-isoxazol-3-yl)-amide] | – | Emax [1]: 107%; EC50 (read-out: hCB2 cAMP EC50): 68 nM
21 | CC(C)(C)c1cc(NC(=O)N2CCCN(C(=O)N3CCCCC3)CC2)no1 [Compound 198, 4-(Piperidine-1-carbonyl)-[1,4]diazepane-1-carboxylic acid (5-tert-butyl-isoxazol-3-yl)-amide] | – | EC50: 47 nM; Emax (CHO): 99%
22 | CC(C)(C)c1cc(NC(=O)N2CCCN(C(=O)c3ccc(Cl)cc3)CC2)no1 [Compound 141, 4-(4-Chloro-benzoyl)-[1,4]diazepane-1-carboxylic acid (5-tert-butyl-isoxazol-3-yl)-amide] | – | Emax [1]: 101%; EC50 (read-out: hCB2 cAMP EC50): 11 nM

Further lines, with some results ahead:

Row | agonistic activity | Structure (SMILES) | other results
23 | agonistic activity | CCC(C)c1cc(NC(=O)N2CCCN(C(=O)N3CCOCC3)CC2)on1 (stereo not drawn) [4-(Morpholine-4-carbonyl)-[1,4]diazepane-1-carboxylic acid (3-sec-butyl-isoxazol-5-yl)-amide] | –
24 | agonistic activity | CCCc1ccc(NC(=O)N2CCCN(C(=O)CCC3CCCC3)CC2)cc1 [4-(3-Cyclopentyl-propionyl)-[1,4]diazepane-1-carboxylic acid (4-propyl-phenyl)-amide] | –
25 | agonistic activity | O=C(CC1CCCC1)N1CCCN(C(=O)Nc2ccc(C(F)(F)F)cc2)CC1 [4-(2-Cyclopentyl-acetyl)-[1,4]diazepane-1-carboxylic acid (4-trifluoromethyl-phenyl)-amide] | –
26 | agonistic activity | O=C(CCC1CCCCC1)N1CCCN(C(=O)Nc2ccc3ccccc3c2)CC1 [4-(3-Cyclohexyl-propionyl)-[1,4]diazepane-1-carboxylic acid naphthalen-2-ylamide] | –
27 | agonistic activity | CS(=O)(=O)c1ccc(NC(=O)N2CCCN(C(=O)CCC3CCCC3)CC2)cc1 [4-(3-Cyclopentyl-propionyl)-[1,4]diazepane-1-carboxylic acid (4-methanesulfonyl-phenyl)-amide] | –
28 | agonistic activity | CCCCc1ccc(NC(=O)N2CCCN(C(=O)C3CCCCC3)CC2)cc1 | –
29 | agonistic activity | CSc1ccc(NC(=O)N2CCCN(C(=O)CC3CCOCC3)CC2)cc1 [4-(2-Tetrahydro-pyran-4-yl-acetyl)-[1,4]diazepane-1-carboxylic acid (4-methylsulfanyl-phenyl)-amide] | –
30 | agonistic activity | CC(C)c1cnc(NC(=O)N2CCCN(C(=O)C3CCOCC3)CC2)s1 [4-(Tetrahydro-pyran-4-carbonyl)-[1,4]diazepane-1-carboxylic acid (5-isopropyl-thiazol-2-yl)-amide] | –
31 | agonistic activity | Cc1cccc(NC(=O)N2CCCN(C(=O)CCC3CCCC3)CC2)c1 [4-(3-Cyclopentyl-propionyl)-[1,4]diazepane-1-carboxylic acid m-tolylamide] | –
32 | agonistic activity | CCC(C)c1ccc(NC(=O)N2CCCN(C(=O)N3CCOCC3)CC2)cc1 (stereo not drawn) [4-(Morpholine-4-carbonyl)-[1,4]diazepane-1-carboxylic acid (4-sec-butyl-phenyl)-amide] | –
33 | agonistic activity | O=C(Nc1cc(C(F)(F)F)ccn1)N1CCCN(C(=O)C2CCOCC2)CC1 [4-(Tetrahydro-pyran-4-carbonyl)-[1,4]diazepane-1-carboxylic acid (4-trifluoromethyl-pyridin-2-yl)-amide] | –
34 | agonistic activity | CCC(C)c1ccc(NC(=O)N2CCCN(C(=O)c3ccccn3)CC2)cc1 (stereo not drawn) [4-(Pyridine-2-carbonyl)-[1,4]diazepane-1-carboxylic acid (4-sec-butyl-phenyl)-amide] | –
35 | agonistic activity | CCc1ccc(NC(=O)N2CCCN(C(=O)C3CCCCC3)CC2)cc1 [4-Cyclohexanecarbonyl-[1,4]diazepane-1-carboxylic acid (4-ethyl-phenyl)-amide] | –
36 | agonistic activity | CC(C)c1ccc(NC(=O)N2CCCN(C(=O)C3CCOCC3)CC2)cc1 [4-(Tetrahydro-pyran-4-carbonyl)-[1,4]diazepane-1-carboxylic acid (4-isopropyl-phenyl)-amide] | –
37 | agonistic activity | CC(C)c1ccc(NC(=O)N2CCCN(C(=O)CC3CCOCC3)CC2)cc1 [4-(2-Tetrahydro-pyran-4-yl-acetyl)-[1,4]diazepane-1-carboxylic acid (4-isopropyl-phenyl)-amide] | –
38 | agonistic activity | CCCCc1ccc(NC(=O)N2CCCN(C(=O)CCC(C)C)CC2)cc1 [4-(4-Methyl-pentanoyl)-[1,4]diazepane-1-carboxylic acid (4-butyl-phenyl)-amide] | –
